Values quoted from earlier work as cited in patent US10894006B2, “Nanoparticles for the encapsulation of compounds, preparation thereof and use of same” (CENTRO NACIONAL DE TECNOLOGÍA Y SEGURIDAD ALIMENTARIA, …, priority 2010, dated 2021).
Read-outs that look alike come from different tables or passages of the source.

For `Nc1nc2ncc(CNc3ccc(C(=O)N[C@@H](CCC(=O)O)C(=O)O)cc3)nc2c(=O)[nH]1` [Non-encap FA, folic acid], the solubility (in slightly alkaline aqueous solution) is listed as “freely soluble” and the solubility (in water) is listed as “slightly soluble”.
